Here are results for two compounds from patent US20100143886A1, “IN VIVO HCV RESISTANCE TO ANTI-VIRAL INHIBITORS” (priority 2007, published 2010).

One experiment deals with HCV genotype 3a. As to the kind of experiment: Viral load by commercial RT-TaqMan assay, chimpanzee dosed with Compound A (Example 3). In kind it is in vivo. Conditions: 2 mg per kg IV for 7 days, level of quantitation 20 IU/ml. As for the experimental part: A chimpanzee infected with a HCV genotype 3a from a human was dosed with Compound A (a N5B polymerase inhibitor) for 7 days at 2 mg per kg IV. Plasma samples were collected prior, during, and after the dosing regimen, with viral load determined by a commercial viral load assay (RT-TaqMan, level of quantitation 20 IU/ml, Cenetron Diagnostics, Austin, Tex. 78758).

The next experiment has as its system HCV genotype 1a. Nature of the experiment: Viral load by commercial RT-TaqMan assay, chimpanzees dosed with Compound B (Example 1). The experiment is classed as in vivo, chimpanzee. The note with it: two chimpanzees, oral 5 mg per kg b.i.d. for 7 days; level of quantitation 20 IU/ml. As for the experimental part: Two chimpanzees chronically infected with HCV genotype 1a from a human were orally dosed with Compound B (a NS3 protease inhibitor) for 7 days at 5 mg per kg b.i.d. Plasma samples were collected prior, during, and after the dosing regimen, with viral load determined by a commercial viral load assay (RT-TaqMan, level of quantitation 20 IU/ml, Cenetron Diagnostics, Austin, Tex. 78758).
On the technique in general: In qPCR the cycle at which signal appears reflects the starting amount.

Entries after “also recorded” stand apart in the source; their conditions may differ.

As for `C[C@@]1(O)[C@H](O)[C@@H](CO)O[C@H]1n1ccc2c(N)ncnc21` [Compound A], the viral load suppression entry with HCV genotype 3a is on record as “below the limit of quantitation (BLQ); also recorded: below quantifiable levels”.

Take `CC[C@@H]1C[C@]1(NC(=O)[C@@H]1C[C@@H]2CN1C(=O)[C@H](C(C)(C)C)NC(=O)OCC(C)(C)CCCCc1cccc3c1CN(C3)C(=O)O2)C(=O)NS(=O)(=O)C1CC1` [Compound B]: the viral load suppression entry in the experiment on HCV genotype 1a was “below quantifiable levels; also recorded: below the limit of quantitation (BLQ)”.
